Results on eight molecules are retold here after PubChem BioAssay (NCI).

The structures appear in SMILES notation.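 Grown in 96-well plates, cells were treated for 48 hours with each compound at five concentrations. Insufficient inhibition: endpoint recorded as highest concentration tested. TGI marks complete inhibition of growth.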

Experiment in all cases: NCI anticancer screen, dose series, 48 h
The subject of assay [1] is BT-549 breast.
The subject of assay [2] is DU-145 prostate.
In assay [3] the test system is HOP-62 NSCLC.
Assay [4] concerns HS 578T breast.
Assay [5] relates to IGROV1 ovarian.
Assay [6] concerns LOX IMVI melanoma.
The test system of assay [7] is M14 melanoma.
For assay [8], the system named is MCF7 breast.
Assay [9] concerns MDA-N.
The subject of assay [10] is NCI-H460 lung.
The test system of assay [11] is OVCAR-5 ovarian.
For assay [12], the system named is SK-MEL-5 melanoma.
Assay [13] deals with SN12C renal.
Assay [14] has as its system U251 CNS.
For assay [15], the system named is UACC-62 melanoma.
The test system of assay [16] is UO-31 renal.
Assay [17] has as its system HCC-2998 colon.
Assay [18] has as its system MALME-3M melanoma.
For assay [19], the system named is NCI-H522 lung.
Assay [20] concerns RXF 393 renal.

Turning to `CCOC(=O)/C(N=Nc1ccc(-n2c(C)nc3ccccc3c2=O)cc1)=C(/C)O`, the TGI in assay [1] was over 100 µM; in assay [2], over 100 µM; in assay [3], over 100 µM; in assay [4], 63.6 µM; in [5] it was over 100 µM; in [6] it was over 100 µM. Further, the TGI is over 100 µM in [7]; over 100 µM in assay [8]; over 100 µM in assay [9]; over 100 µM in assay [10]; over 100 µM in assay [11]; 16 µM in assay [12]. The TGI in assay [13], in assay [14], in assay [15] and in [16] was over 100 µM in each case.

As to `O=c1n(/N=C/c2ccccc2)c(=O)n2n1C1C=CC2CC1`, the TGI in assay [1], in assay [2], in [3], in assay [4], in [5] and in assay [6] was over 100 µM each time. Moreover, the TGI in assay [7], in assay [8], in [9], in assay [10], in assay [11] and in [12] was over 100 µM each time. The TGI in assay [13], in assay [14], in assay [15] and in assay [16] was over 100 µM throughout.

`COc1ccc(OC)c2sc(N3C(=O)/C(=C/Cc4ccco4)N=C3c3ccccc3)nc12`: the TGI in assay [1], in assay [2], in assay [17], in [3], in assay [4] and in [5] was over 100 µM each time. Besides, the TGI in assay [6] was 70 µM; in [7], over 100 µM; in [8], 35.7 µM; in [9] it was 48.3 µM; in [10], over 100 µM; in assay [11] it was over 100 µM. Moreover, the TGI in assay [12] was 80.5 µM; in [13], 80 µM; in assay [14], 54.1 µM; in assay [15], 51.1 µM; in assay [16] it was 80.8 µM.

Consider `Cc1occc1C(=S)Nc1ccc(Cl)c(C(=O)OCC(F)(F)F)c1`, for which the TGI in assay [1] is 42.7 µM; in [2], 47.1 µM; in [17], 35.1 µM; in assay [4] it was over 100 µM; in [5] it was 39.7 µM; in assay [6], 34.7 µM. The TGI in [7] was over 100 µM; in [18] it was 73.7 µM; in assay [8], 43 µM; in assay [9] it was over 100 µM; in [10] it was 48.1 µM; in [19], 45.5 µM. Moreover, the TGI in assay [11] is over 100 µM; in assay [12], 30.9 µM; in assay [13] it was 41.4 µM; in [14] it was 39.3 µM; in assay [15], 32 µM; in assay [16], 39.1 µM.

Take `Oc1ccccc1/C=N/Nc1nnc2c3ccccc3c3ccccc3c2n1`: the TGI in assay [1], in [2], in [3], in assay [4], in assay [5] and in assay [6] was over 100 µM throughout. Besides, the TGI in [7] was over 100 µM; in assay [18], over 100 µM; in [8], over 100 µM; in assay [9], over 100 µM; in [10], over 100 µM; in assay [19] it was 54.1 µM. Besides, the TGI in assay [11], in assay [20], in assay [12], in assay [13], in assay [14] and in assay [15] was over 100 µM each time. This molecule also displayed a TGI in assay [16] of over 100 µM.

As to `CSC1=N[C@H](c2ccccc2)CS1`, the TGI in assay [1], in [2], in assay [17], in [3], in assay [4] and in [5] was over 100 µM throughout. The TGI in assay [7], in assay [8], in assay [9], in assay [10], in assay [11] and in assay [12] was over 100 µM in each case. The TGI in [13], in [14], in assay [15] and in [16] was over 100 µM in each case.

As to `O=c1c2cc(S(=O)(=O)Nc3ccccc3Cl)ccc2ncn1NS(=O)(=O)c1ccc(Br)cc1`, the TGI in [1], in assay [2], in [17], in assay [3], in [4] and in [5] was over 37.5 µM in each case. Further, the TGI in [6], in assay [7], in assay [18], in [8], in assay [9] and in [10] was over 37.5 µM throughout. In addition, the TGI in assay [19], in assay [11], in assay [13], in assay [14], in assay [15] and in assay [16] was over 37.5 µM throughout.

`N#CC1(C#N)C2CCCCC23OC(=N)C1(C#N)C(c1ccco1)O3` (configuration not stated): the TGI in assay [1] stood at 30.3 µM; in assay [2] it was 90 µM; in [17] it was 31 µM; in [4] it was 70.4 µM; in assay [5], 40.3 µM; in [6], 37.5 µM. Besides, the TGI is 41.6 µM in assay [7]; 48.3 µM in assay [18]; 54 µM in [8]; 33.8 µM in assay [9]; over 100 µM in assay [10]; 61.8 µM in [11]. Also, the TGI in [20] is 59.1 µM; in assay [12], 31.3 µM; in assay [13] it was 29.2 µM; in [15], 36.4 µM; in [16] it was over 100 µM.
